Source: US9399028B2, “Treatment of drug resistant cancer” (ROCKEFELLER UNIVERSITY (THE), priority 2012, dated 2016)
Structures can show the parent of a compound that is named as a salt.

How the values were obtained:
[1] = test system: HUVEC recruited by human melanoma cells; experiment: Trans-well endothelial recruitment assay; type: cell-based; conditions: for ability of melanoma cells to recruit endothelial cells: MeWo, HT-144, SK-Mel-2, SK-Mel-334.2, 1 μM for 72 hours
Method: 5×10^4 cancer cells were seeded into 24-well plates approximately 24 hours prior to the start of the assay. HUVEC's were grown to 80% confluency and serum starved in EGM-2 media supplemented with 0.2% FBS for 16 hours. HUVEC's were then pulsed with Cell Tracker Red CMTPX dye (C34552, Invitrogen) for 45 minutes. Meanwhile, cancer cells were washed with PBS, 0.5 mL of 0.2% FBS EGM-2 media was added to each well, and a 3.0 μm HTS Fluoroblock insert (351151, BD Falcon, San Jose, Calif.) was placed into each well. 1×10^5 HUVEC's, resuspended in 0.5 mL of starvation media, were seeded into each trans-well insert, and the recruitment assay was allowed to proceed for 16-18 hours at 37° C. For neutralization antibody and/or recombinant protein experiments, antibody/protein was then added to each well at the appropriate concentration as indicated in the figures: 40 μg/mL anti-ApoE 1D7, 40 μg/mL anti-IgG, 100 μM rhApoE3, and 100 μM BSA. Upon completion of the assay, the inserts were processed and analyzed as described for the matrigel invasion assay above (See Matrigel Invasion Assay).
The endothelial recruitment assay was carried out as previously described (Pencheva et al., 2012; Png et al., 2012). Melanoma cells were treated with DMSO, GW3965, T0901317, or Bexarotene at 1 μM for 56 hours, after which 5×10^4 cells were seeded in a 24-well plate in the presence of each drug and allowed to attach for 16 hours prior to starting the assay. HUVEC cells were serum-starved overnight in EGM-2 media containing 0.2% FBS. The following day, 1×10^5 HUVEC cells were seeded into a 3.0 μm HTS Fluoroblock trans-well migration insert (351151, BD Falcon, San Jose, Calif.) fitted into each well containing cancer cells at the bottom. The HUVEC cells were allowed to migrate towards the cancer cells for 20 hours at 37° C., after which the inserts were processed as previously described (Pencheva et al., 2012). For ApoE antibody neutralization experiments, 40 μg/mL 1D7 anti-ApoE blocking antibody (Heart Institute, University of Ottawa, Ottawa, Canada) or 40 μg/mL anti-IgG control antibody (AB-108-C, R&D Systems, Minneapolis, Minn.) was added to each trans-well insert at the start of the assay.
Subsequently, 5×10^4 cancer cells were seeded into 24-well plates in the presence of each drug or DMSO and allowed to attach for 16 hours prior to starting the assay. Human umbilical vein endothelial cells (HUVEC cells) were serum-starved in 0.2% FBS-containing media overnight. The following day, 1×10^5 HUVEC cells were seeded into a 3.0 μm HTS Fluoroblock insert (351151, BD Falcon) fitted into each well containing the cancer cells at the bottom. The HUVEC cells were allowed to migrate towards the cancer cells for 20 hours, after which the inserts were washed in PBS, fixed in 4% PFA, labeled with DAPI, and mounted on slides. The basal side of each insert was imaged using an inverted fluorescence microscope (Zeiss Axiovert 40 CFL) at 5× magnification, and the number of DAPI-positive cells was quantified using ImageJ.

[2] = test system: human melanoma cells and endothelial cells; experiment: In vitro cell proliferation, viability and serum starvation survival; type: cell-based; conditions: for cell proliferation or cell viability rates: MeWo, HT-144, SK-Mel-334.2 cells, 1 μM, 5 days
Method: To determine the effects of miR-199a or miR-1908 over-expression and combinatorial LNA-induced miRNA inhibition on cell proliferation, 2.5×10^4 cells were seeded in triplicate in 6-well plates, and viable cells were counted after 5 days. […] Viable cells were counted after 8, 24, 48, 72, and 120 hours.
The number of viable cells was counter after 8, 16, and 24 hours.
To determine the effects of GW3965, T0901317, and Bexarotene on in vitro cell growth, 2.5×10^4 melanoma cells were seeded in triplicate in 6-well plates and cultured in the presence of DMSO, GW3965, T0901317, or Bexarotene at 1 μM each. After 5 days, the number of viable and dead cells was counted using the trypan blue dye (72-57-1, Sigma-Aldrich), which selectively labels dead cells.

[3] = MeWo-LM2 or endothelial cells, ApoE 100 μM

Row | Molecule | ability of melanoma cells to recruit endothelial cells [1] | cell proliferation or cell viability rates [2] | ability of endothelial cells to migrate towards highly metastatic cancer cells ([1]; endothelial cells pre-treated 24 hours, 100 μM) | endothelial recruitment by metastatic LM2 cells ([1]; recombinant ApoE3 100 μM in cell media) | melanoma cell or endothelial cell in vitro proliferation [2, 3] | survival in serum starvation conditions [2, 3] | endothelial recruitment ([1]; parental MeWo cells pre-treated 48 hours)
1 | O=S(=O)(c1ccccc1)N(CC(F)(F)F)c1ccc(C(O)(C(F)(F)F)C(F)(F)F)cc1 [T0901317 1] | consistently suppressed | did not affect |  |  |  |  | 
2 | recombinant human ApoE3: recombinant human ApoE3 (4696, BioVision) |  |  | significantly reduced | significantly suppressed | did not affect | did not affect | 
3 | O=C(O)Cc1cccc(OCCCN(Cc2cccc(C(F)(F)F)c2Cl)CC(c2ccccc2)c2ccccc2)c1 [GW3965 2, 3-[3-[N-(2-Chloro-3-trifluoromethylbenzyl)-(2,2-diphenylethyl)amino]propyloxy]phenylacetic acid hydrochloride] | consistently suppressed | did not affect |  |  |  |  | decreased
